Measured values from article PMC5923396 (Marine Drugs, 2018).
Like-named read-outs stand apart in the source and are kept apart here.

Key:
[1] = molecular target: T1, Torpedo californica muscle-type nAChR (Tetronarce californica, UniProt P02710+P02714+P02718); assay: Intrinsic tryptophan fluorescence quenching; assay type: binding; conditions: 2 μM MG; λex 280 nm, λem 340 nm; prevented by α-Bgt pre-incubation
T1 construct: from tissue; host or cells: Torpedo californica electric organ membranes
Description: Intrinsic tryptophane fluorescence detection. Electric organ membranes of Torpedo californica at the final concentration of 1 nM of toxin-binding sites in a 20 mM Tris-HCl buffer were mixed with Makaluvamine G (final concentration 2 μM) and the control membranes were pre-incubated with 1 μM αBgt for 30 min. Measurements were done on a Cary Eclipse (Agilent, Santa Clara, CA, USA) spectrofluorimeter with a standard kinetics software (version 1.2) with excitation wavelength 280 nm and emission wavelength 340 nm (both with 5 nm slits). The data were exported to csv files and analyzed in the LibreOffice 6.0 Calc software (The Document Foundation, Berlin, Germany).

α1β3γ2 GABAAR [2] = molecular target: T2, α1β3γ2 GABAAR (Mus musculus, UniProt P62812+P63080); assay: Fluorescent α-Ctx competition assay on Neuro2a cells; assay type: binding, murine; set-up: expressed in transfected cells; host or cells: mouse neuroblastoma Neuro2a cells, transient transfection; conditions: 50 μM MG
mice [3] = tested on: mice; set-up: method as in doi:10.1016/S0040-4020(01)96256-8; conditions: cited from earlier work
homopentameric α1 GlyR = tested on: homopentameric α1 GlyR; set-up: method as in PMID 24686559; conditions: cited from earlier work
rat α4β2 nAChR = molecular target: T3, rat α4β2 nAChR (Rattus norvegicus, UniProt P09483+P12390); assay: Two-electrode voltage clamp, ACh-evoked currents in Xenopus oocytes; assay type: cell-based
T3 construct: expressed in transfected cells; host or cells: Xenopus oocytes injected with plasmid DNA (pcDNA 3.1 vector)

topoisomerase I = molecular target: topoisomerase I; set-up: method as in doi:10.1016/S0040-4020(01)96256-8; conditions: read-out: IC50 topoisomerase I inhibiting; cited from earlier work
mice [4] = assay: In vivo toxicity in mice (literature); conditions: corresponds to 210 mg/kg
different types of cells = tested on: different types of cells; set-up: method as in doi:10.1016/S0040-4020(01)96256-8; conditions: cited from earlier work
human α7 nAChR = tested on: human α7 nAChR; set-up: method as in PMID 24686559; conditions: cited from earlier work
murine muscle nAChR = molecular target: T4, murine muscle nAChR (Mus musculus, UniProt P02716+P04756+P20782); assay: Two-electrode voltage clamp, acetylcholine-evoked current in Xenopus oocytes; assay type: cell-based; conditions: for inhibition at 2.5 µM: holding potential −70 mV, read-out: inhibition extent, peak current amplitude
T4 construct: expressed in transfected cells; host or cells: Xenopus oocytes injected with plasmid DNA (pRBG4 vector)

α4β2 nAChR = α4β2 nAChR (Rattus norvegicus, UniProt P09483+P12390); assay type: binding; conditions: test ligand concentrations up to 1 mM
[5] = molecular target: T5, wild-type (WT) muscle nAChR (Mus musculus, UniProt P02716+P04756+P20782); assay: Fluorescent detection of cytoplasmic Ca2+ rise in transfected Neuro2a cells (Case12); assay type: cell-based; conditions: 2.5 μM MG, Ca2+ fluorescence
T5 construct: expressed in transfected cells; host or cells: mouse neuroblastoma Neuro2a cells, transient co-transfection with the Case12 calcium sensor

α1β3γ2 GABAAR [6] = molecular target: T2, α1β3γ2 GABAAR; assay: Two-electrode voltage clamp, GABA-evoked currents in Xenopus oocytes; assay type: cell-based, murine; conditions: 25 μM MG; surmountable by higher GABA concentrations
GABAAR = conditions: cited from earlier work
[7] = set-up: method as in earlier work; conditions: cited from earlier work

Compound	intrinsic Trp fluorescence quenching [1]	inhibition of fluorescent α-Ctx binding (α1β3γ2 GABAAR [2])	dose not toxic to mice (mice [3])	inhibition of α1 GlyR (homopentameric α1 GlyR)	inhibition of ACh-evoked currents (rat α4β2 nAChR; high micromolar range (25 μM MG, 50 μM acetylcholine))	time to recovery of normal current amplitude after washout (rat α4β2 nAChR; reversibility of inhibition, data not shown) [min]	IC50 (topoisomerase I) [nM]	dose not toxic to mice, molar (mice [4]) [µmol/kg]	concentrations showing cytotoxicity (different types of cells) [nM]	potency at muscle nAChR relative to human α7 nAChR (human α7 nAChR)	inhibition at 2.5 µM (murine muscle nAChR; 2.5 μM MG co-applied with 10 μM acetylcholine) [%]	inhibition at 2.5 µM (murine muscle nAChR; 2.5 μM MG co-applied with 1000 μM acetylcholine) [%]	dependence of inhibition on membrane potential (open-channel block) (murine muscle nAChR; 2.5 μM MG, 30 μM acetylcholine, −30 to −100 mV, current amplitude and net charge)	inhibition of [3H]-epibatidine binding (α4β2 nAChR)	effect on WT receptor dose response to acetylcholine [5]	inhibition of GABA-evoked currents (α1β3γ2 GABAAR [6])	affinity at GABAAR (GABAAR)	LD50 [7]
Cn1cc2c3c1C(=O)C(N/C=C/c1ccc(O)cc1)=CC3=[N+](C)CC2 [MG, Makaluvamine G]	induces a drop of intrinsic tryptophan fluorescence	Only partial inhibition	up to 210 mg/kg	does not inhibit	only weak inhibition	15 to 20	~3000	629	1000 to 70000	at least one order of magnitude more potent	27	81	No increase in the inhibition	partial	does not affect	inhibits		
COc1cc2c3cc1Oc1cc(ccc1O)C[C@@H]1c4c(cc(OC)c(O)c4Oc4ccc(cc4)C[C@@H]3N(C)CC2)CC[N+]1(C)C [d-tubocurarine]																	sub-micromolar	less than 0.7 μmole/kg
α-cobratoxin																	sub-micromolar	
